In PMC5584945, “Evaluation of robenidine analog NCL195 as a novel broad-spectrum antibacterial agent” (PLoS ONE, 2017):
In brackets after ≈: the same amount, converted by molar mass. Where two headings read alike, the source gives them in different places.

Experiments:
Caco-2 = assay: In vitro cytotoxicity, WST-1; format: cell-based; conditions: Homo sapiens, 24 h exposure, read-out: IC50 values ± SEM
Text: (§1) In order to ensure minimal off target mammalian cell cytotoxicity, we assayed NCL812, NCL195 and NCL219 for in vitro cytotoxicity using a panel of adherent mammalian cell lines: Caco-2 (human colorectal adenocarcinoma cell line), HEL 299 (non-cancerous human lung fibroblast cell line), Hep G2 (human hepatocellular carcinoma cell line), MDBK (normal bovine kidney cell line) and MCF7 (human mammary gland adenocarcinoma cell line). Cell lines were maintained in Dulbecco’s Modified Eagle’s Medium (DMEM; […] After 24 h incubation, media was removed, washed once with medium without antibiotics and fresh medium supplemented with 10% (vol/vol) FBS was added. […] Following exposure for 24 h, WST-1 reagent was added to each well at a final concentration of 10%. […] The IC50 value for each compound against each cell line was determined via non-linear regression (three parameters) using GraphPad Prism v6 software. The robustness of assays was confirmed with selected cell lines (Hep G2 and MDBK) seeded onto a 96–well Microwell Nunclon Delta Surface plate (Thermo Scientific Nunc; Cat No: 136101) at 5 × 10^4 cells per well.

Hep G2 = assay: In vitro cytotoxicity, WST-1; format: cell-based; conditions: Homo sapiens, HepG2; 24 h exposure; read-out: IC50 values ± SEM
Text: as §1

HEL 299 = assay: In vitro cytotoxicity, WST-1; format: cell-based; conditions: Homo sapiens, 24 h exposure, read-out: IC50 values ± SEM
Text: as §1

MCF7 = assay: In vitro cytotoxicity, WST-1; format: cell-based; conditions: Homo sapiens, 24 h exposure, read-out: IC50 values ± SEM
Text: as §1

[1] = Microsomal metabolic stability; format: in vitro ADME; conditions: for microsomal CLint at 0.4 μg/ml / half-life at 0.4 μg/ml: liver microsomes, pH 7.4; for microsomal CLint at 0.4 μg/ml: read-out: CLINT; for Predicted EH: hepatic extraction ratio; for Predicted CLblood: microsome-predicted; for half-life at 0.4 μg/ml: 0.4 μg/ml compound, 0.4 mg/ml protein, NADPH
Protocol: The metabolic stability assay was performed by incubating 0.4 μg/ml of each test compound with human and mouse liver microsomes (Xenotech, Lot# 1210057 and 1310211, respectively) suspended in 0.1 M pH 7.4 phosphate buffer at 37°C and 0.4 mg/ml protein concentration. The metabolic reaction was initiated by the addition of an NADPH-regenerating system (i.e. NADPH is the cofactor required for CYP450-mediated metabolism) and quenched at various time points over a 60 min incubation period by the addition of acetonitrile containing diazepam as internal standard. Control samples (containing no NADPH) were included (and quenched at 2, 30 and 60 min) to monitor for potential degradation in the absence of cofactor. Test compound concentration vs time data were fitted to an exponential decay function to determine the first-order rate constant for substrate depletion. This was used to calculate a degradation half-life (T1/2), in vitro intrinsic clearance (CLINT), microsome-predicted blood clearance (CLblood) and a microsome-predicted hepatic extraction ratio (EH) according to the in vitro half-life method of Obach[53].

S. pneumoniae = assay: MIC, broth micro-dilution (CLSI); format: cell-based, Streptococcus pneumoniae; conditions: for MIC / MIC50 / MIC90: Streptococcus pneumoniae
S. aureus Xen29 = assay: Minimum bactericidal concentration (MBC); format: cell-based; conditions: Staphylococcus aureus, 99.9% colony count reduction
Protocol: The tray was covered with Breathe-Easy sealing membrane (Z380059, Sigma-Aldrich) and incubated for 16 h overnight at 35°C in an EnSpire Multimode Plate Reader 2300 (PerkinElmer), with data collected every 20 min and 2 sec agitation at 60 rpm between data (A600 nm) acquisitions. The experiment was repeated using the luminescent D39LUX strain on a Cytation 5 Cell Imaging Multi-Mode Reader (BioTek) using IsoplateTM-96 F tray PerkinElmer, 6005020). Kill kinetic assays on S. aureus Xen29 was carried out essentially as described for MIC determination on Cytation 5 Cell Imaging Multi-Mode Reader.
In order to determine the MBC of each compound against S. pneumoniae D39 or S. aureus Xen29, 10 μl aliquots from each duplicate well from the MIC assays (starting from the MIC for each compound) was inoculated onto a HBA plate and incubated at 37°C (+ 5% CO2 for S. pneumoniae D39). Plates were examined at 24 and 48 h and the MBC was recorded as the lowest concentration of each test compound at which a 99.9% colony count reduction was observed on the plate.

human red blood cells = assay: Haemolysis assay; format: cell-based; conditions: 1 h, 37°C; highest concentration used 128 μg/ml
Protocol: This was performed using fresh donor human red blood cells (RBCs), essentially as described previously. Fresh RBCs were washed in PBS three times at 500 × g for 5 min, and then resuspended 1% (w/v) in PBS. […] Thereafter, 198 μL of the 1% RBC solution was added into each well, and the mixture incubated for 1 h at 37°C, with shaking at 100 rpm. Quadruplicate wells containing either 1% Triton X100, or PBS only, served as controls. After incubation, the trays were centrifuged at 1,000 × g for 3 min and 100 μl of supernatant from each well transferred into a new 96-well tray. Absorbance was measured at A450 nm on a Multiskan Ascent 354 Spectrophotometer (Labsystems) and plotted against each dilution. Haemolytic titer was determined as the reciprocal of the dilution at which 50% of erythrocytes were lysed at A450 nm. The experiment was performed twice.

MDBK = assay: Real-time cell viability, RealTime-Glo MT; format: cell-based, bovine; conditions: 2 or 8 μg/ml, up to 20 h post-treatment
Text: as §1

C/C(=N\NC(=N)N/N=C(\C)c1ccc(C(C)(C)C)cc1)c1ccc(C(C)(C)C)cc1 [NCL219, (E)-N'-((E)-1-(4-(tert-butyl)phenyl)ethylidene)-2-(1-(4-(tert-butyl)phenyl)ethylidene)hydrazine-1-carboximidhydrazide]
IC50 (Caco-2): 7.5 ± 0.1 µg/mL (≈ 18.5 µM) | IC50 (Hep G2): 7.1 ± 0.1 µg/mL (≈ 17.5 µM) | IC50 (HEL 299): 21.2 ± 0.2 µg/mL (≈ 52.3 µM) | IC50 (MCF7): > 128 µg/mL | microsomal CLint at 0.4 μg/ml ([1]; human): 94 µL/min/mg | Predicted EH ([1]; human): 0.79 | Predicted CLblood ([1]; human): 16 mL/min/kg | half-life at 0.4 μg/ml ([1]; human): 18 min | half-life at 0.4 μg/ml ([1]; mouse): 14 min | microsomal CLint at 0.4 μg/ml ([1]; mouse): 121 µL/min/mg | Predicted EH ([1]; mouse): 0.72 | Predicted CLblood ([1]; mouse): 87 mL/min/kg | MIC range (S. pneumoniae; 21 isolates): 1 to 8 µg/mL | MIC range (S. pneumoniae; S1 Table isolates, 5% FBS + 3% washed RBC): 1 to 8 µg/mL | MIC range (S. pneumoniae; S1 Table isolates, 10% FBS + 3% washed RBC): 1 to 8 µg/mL | MIC (S. pneumoniae; A66.1 (serotype 3), 5% FBS): 4 µg/mL (≈ 9.86 µM) | MIC (S. pneumoniae; A66.1 (serotype 3), 10% FBS): 4 µg/mL (≈ 9.86 µM) | MIC (S. pneumoniae; ATCC6303, ATCC 6303 (serotype 3), 5% FBS + 3% washed RBC): 1 µg/mL | MIC (S. pneumoniae; ATCC6303, ATCC 6303 (serotype 3), 10% FBS + 3% washed RBC): 1 µg/mL | MIC (S. pneumoniae; D39/D39LUX (serotype 2), 5% FBS): 4 µg/mL (≈ 9.86 µM) | MIC (S. pneumoniae; D39/D39LUX (serotype 2), 10% FBS): 4 µg/mL (≈ 9.86 µM) | MIC (S. pneumoniae; L82016 (serotype 6B), 5% FBS): 2 µg/mL (≈ 4.93 µM) | MIC (S. pneumoniae; L82016 (serotype 6B), 10% FBS): 2 µg/mL (≈ 4.93 µM) | MIC (S. pneumoniae; P9 (serotype 6A), 5% FBS): 4 µg/mL (≈ 9.86 µM) | MIC (S. pneumoniae; P9 (serotype 6A), 10% FBS): 4 µg/mL (≈ 9.86 µM) | MIC (S. pneumoniae; P21 (serotype 3), 5% FBS): 4 µg/mL (≈ 9.86 µM) | MIC (S. pneumoniae; P21 (serotype 3), 10% FBS): 4 µg/mL (≈ 9.86 µM) | MIC50 (S. pneumoniae; S1 Table isolates, 5% FBS): 4 µg/mL (≈ 9.86 µM) | MIC90 (S. pneumoniae; S1 Table isolates, 5% FBS): 4 µg/mL (≈ 9.86 µM) | MIC50 (S. pneumoniae; S1 Table isolates, 10% FBS): 4 µg/mL (≈ 9.86 µM) | MIC90 (S. pneumoniae; S1 Table isolates, 10% FBS): 8 µg/mL (≈ 19.7 µM) | MIC (S. pneumoniae; TIGR4 (serotype 4), 5% FBS): 2 µg/mL (≈ 4.93 µM) | MIC (S. pneumoniae; TIGR4 (serotype 4), 10% FBS): 2 µg/mL (≈ 4.93 µM) | MIC (S. pneumoniae; WCH16 (serotype 6A), 5% FBS): 2 µg/mL (≈ 4.93 µM) | MIC (S. pneumoniae; WCH16 (serotype 6A), 10% FBS): 2 µg/mL (≈ 4.93 µM) | MIC (S. pneumoniae; WCH43 (serotype 4), 5% FBS): 2 µg/mL (≈ 4.93 µM) | MIC (S. pneumoniae; WCH43 (serotype 4), 10% FBS): 2 µg/mL (≈ 4.93 µM) | MIC (S. pneumoniae; WCH46 (serotype 4), 5% FBS): 4 µg/mL (≈ 9.86 µM) | MIC (S. pneumoniae; WCH46 (serotype 4), 10% FBS): 4 µg/mL (≈ 9.86 µM) | MIC (S. pneumoniae; WCH57 (serotype 8), 5% FBS): 4 µg/mL (≈ 9.86 µM) | MIC (S. pneumoniae; WCH57 (serotype 8), 10% FBS): 4 µg/mL (≈ 9.86 µM) | MIC (S. pneumoniae; WCH86 (serotype 4), 5% FBS): 4 µg/mL (≈ 9.86 µM) | MIC (S. pneumoniae; WCH86 (serotype 4), 10% FBS): 4 µg/mL (≈ 9.86 µM) | MIC (S. pneumoniae; WCH89 (serotype 7), 5% FBS): 8 µg/mL (≈ 19.7 µM) | MIC (S. pneumoniae; WCH89 (serotype 7), 10% FBS): 4 µg/mL (≈ 9.86 µM) | MIC (S. pneumoniae; WCH92 (serotype 4), 5% FBS): 4 µg/mL (≈ 9.86 µM) | MIC (S. pneumoniae; WCH92 (serotype 4), 10% FBS): 4 µg/mL (≈ 9.86 µM) | MIC (S. pneumoniae; WCH137 (serotype 6A), 5% FBS): 4 µg/mL (≈ 9.86 µM) | MIC (S. pneumoniae; WCH137 (serotype 6A), 10% FBS): 4 µg/mL (≈ 9.86 µM) | MIC (S. pneumoniae; WCH158 (serotype 19F), 5% FBS): 8 µg/mL (≈ 19.7 µM) | MIC (S. pneumoniae; WCH158 (serotype 19F), 10% FBS): 8 µg/mL (≈ 19.7 µM) | MIC (S. pneumoniae; WCH184 (serotype 19F), 5% FBS): 2 µg/mL (≈ 4.93 µM) | MIC (S. pneumoniae; WCH184 (serotype 19F), 10% FBS): 2 µg/mL (≈ 4.93 µM) | MIC (S. pneumoniae; WCH211 (serotype 11), 5% FBS): 4 µg/mL (≈ 9.86 µM) | MIC (S. pneumoniae; WCH211 (serotype 11), 10% FBS): 4 µg/mL (≈ 9.86 µM) | MIC (S. pneumoniae; WU2 (serotype 3), 5% FBS): 4 µg/mL (≈ 9.86 µM) | MIC (S. pneumoniae; WU2 (serotype 3), 10% FBS): 4 µg/mL (≈ 9.86 µM) | MBC (S. aureus Xen29): 16 µg/mL (≈ 39.4 µM) | 50% haemolysis titre (HC50) (human red blood cells): 6 µg/mL | Effect on cell viability (real-time) (MDBK): had a demonstrable effect on viability at 2 μg/ml
